# “Also recorded” adds a separate entry of the source.
# How the values were obtained:
# Type in all cases: cell-based, human
# [1] = tested on: PSC lines that did not readily differentiate into neural tissue; assay: Cerebral organoid differentiation, unguided protocol (STEMdiff Cerebral Organoid Kit), panel of bad differentiator lines; conditions: for Effect: organoid morphology: inhibition of Wnt at organoid stage, added at embedding stage
# From the text: The so called “unguided protocol” relies on the natural propensity of PSCs to differentiate to neural fate and specifically forebrain when not exposed to any growth factors. The inventors cultured PSCs in Stemflex (Thermo) medium on plates coated with Matrigel growth factor reduced (Corning) and for generation of brain organoids they used STEMdiff Cerebral Organoid Kit (Stemcell Technologies). […] To address this variability that plagues not only the neural organoid field but also others that rely on 2D and 3D differentiation to a variety of cell types, the inventors investigated the potential sources of this variability in PSCs and potential treatments to address this problem or, in other words, to standardise the performance of PSCs during differentiation.
# Because neural differentiation represents the default program upon pluripotency exit, the ability of a cell line to undergo such unguided differentiation is also a good indication of their pluripotent state. The other approach was to in depth characterise PSC lines that either produce good or bad organoids by proteomics and phosphoproteomics, analysis of already available bulk RNAseq data to learn about their transcriptome, and by ATACseq to learn about open chromatin patterns. […] Based on the combination of information gathered from both approaches, a number of treatments were chosen to test on the bad differentiators.
# [2] = tested on: PS cells; assay: PSC basal (maintenance) culture; conditions: inhibition of SRC at basal culture, prolonged exposure
# From the text: (§1) The so called “unguided protocol” relies on the natural propensity of PSCs to differentiate to neural fate and specifically forebrain when not exposed to any growth factors. The inventors cultured PSCs in Stemflex (Thermo) medium on plates coated with Matrigel growth factor reduced (Corning) and for generation of brain organoids they used STEMdiff Cerebral Organoid Kit (Stemcell Technologies). Despite these highly standardised conditions (FIG. 1A), the outcome of the protocol (i.e. the identity and quality of the tissues produced) can vary depending on the cell line that was used in the protocol or even between different batches of the same line (FIGS. 1 B and C). This makes producing good quality organoids from different lines difficult and unpredictable. To address this variability that plagues not only the neural organoid field but also others that rely on 2D and 3D differentiation to a variety of cell types, the inventors investigated the potential sources of this variability in PSCs and potential treatments to address this problem or, in other words, to standardise the performance of PSCs during differentiation.
# There is a huge body of literature describing potential sources of PSC variability and a similar number of publications about ways to address this in a particular context, for example to increase efficiency of differentiation towards a certain tissue type. […]
# [3] = tested on: burb1 cells; assay: Cerebral organoid differentiation, unguided protocol, burb1 line
# From the text: (§2) The so called “unguided protocol” relies on the natural propensity of PSCs to differentiate to neural fate and specifically forebrain when not exposed to any growth factors. The inventors cultured PSCs in Stemflex (Thermo) medium on plates coated with Matrigel growth factor reduced (Corning) and for generation of brain organoids they used STEMdiff Cerebral Organoid Kit (Stemcell Technologies). Despite these highly standardised conditions (FIG. 1A), the outcome of the protocol (i.e. the identity and quality of the tissues produced) can vary depending on the cell line that was used in the protocol or even between different batches of the same line (FIGS. 1 B and C). This makes producing good quality organoids from different lines difficult and unpredictable. To address this variability that plagues not only the neural organoid field but also others that rely on 2D and 3D differentiation to a variety of cell types, the inventors investigated the potential sources of this variability in PSCs and potential treatments to address this problem or, in other words, to standardise the performance of PSCs during differentiation. […]
# (§3) To establish such an approach, the inventors analysed the epigenetic state of human pluripotent stem cells and the role of epigenetics in development. […]
# [4] = tested on: fiaj1 cells; assay: Cerebral organoid differentiation, unguided protocol, fiaj1 line; conditions: fiaj 1
# From the text: as §1
# (§4) Because neural differentiation represents the default program upon pluripotency exit, the ability of a cell line to undergo such unguided differentiation is also a good indication of their pluripotent state. […]
# [5] = tested on: sojd3 cells; assay: Cerebral organoid differentiation, unguided protocol, sojd3 line; conditions: inhibition of Wnt in culture, Stemflex with 2-3 μM IWP2, long term (>8 passages)
# From the text: as §2, §3
# [6] = tested on: kolf2 cells (organoid non-competent batch); assay: Cerebral organoid differentiation, unguided protocol, bad batch of kolf2; conditions: generation of organoids with MEK inhibition
# From the text: as §1, §4
molecule,measurement,setting,value
COc1cccc(-c2cn(-c3ccc(CCN4CCC(O)CC4)cc3)c3ncnc(N)c23)c1 [CGP-77675],Effect: organoid differentiation outcome,[1]; inhibition of SRC at basal culture,Worse organoid differentiation
same,Effect on PS cells in basal culture,[2],"outcome, differentiation of PS"
recombinant human laminin 521 [L521],Effect: organoid generation,[3]; PSC culture on L521,improved organoid generation
same,Effect: organoid differentiation,"[4]; culture on L521 micropatterns, areas of correct differentiation a small percentage of organoid volume",worked to some extent in fiaj 1
COc1ccc(N(C(=O)Oc2c(C)cccc2C)c2ccnc(Nc3ccc(N4CCN(C)CC4)cc3)n2)c(OC)c1 [WH-4-023],Effect: organoid differentiation outcome,"[1]; inhibition of SRC at organoid generation, alone","no improvement alone,"
same,Effect: organoid differentiation outcome,"[1]; inhibition of SRC at organoid generation, used alongside with HRG",improves outcome when used
Cc1ccc2nc(NC(=O)CSc3nc4c(c(=O)n3-c3ccccc3)SCC4)sc2c1 [IWP2],Effect: organoid generation / brain organoid competency,[5],did not improve; also recorded: no improvement in sojd3
same,Effect: organoid morphology,[1],embedding stage improve
same,Effect: organoid generation / brain organoid competency,"[3]; inhibition of Wnt in culture, Stemflex with 2-3 μM IWP2, long term (>8 passages)",able to restore organoid competency; also recorded: acquired brain organoid competency; also recorded: improved organoid
O=C(NOC[C@H](O)CO)c1ccc(F)c(F)c1Nc1ccc(I)cc1F [PD0325901],Effect: organoid differentiation,[6],Some improvement in bad
same,Effect: improvement of organoid differentiation,[4]; generation of organoids with MEK inhibition,"batch of kolf2, no"
"DKK-1: Wnt inhibition at organoid stage, added at Matrigel embedding (protein, UniProt O94907 32-266, looked up) Dickkopf-related protein 1: TLNSVLNSNAIKNLPPPLGGAAGHPGSAVSAAPGILYPGGNKYQTIDNYQPYPCAEDEECGTDEYCASPTRGGDAGVQICLACRKRRKRCMRHAMCCPGNYCKNGICVSSDQNHFRGEIEETITESFGNDHSTLDGYSRRTTLSSKMYHTKGQEGSVCLRSSDCASGLCCARHFWSKICKPVLKEGQVCTKHRRKGSHGLEIFQRCYCGEGLSCRIQKDHHQASNSSRLHTCQRH",Effect: organoid morphology,[1],embedding stage improve

# From patent publication US20260265699A1, “STANDARDISING PLURIPOTENT STEM CELLS” (United Kingdom Research and Innovation, priority 2023, published 2026)
